The source of these data is PMC6683117 (2019).

The experiment concerns KRAS G12D mutated nucleotide (GAT), biotinylated hairpin (DNA, hairpin) TACATCTGATGGCGTATTAAGTTTTCTTAATACGCCATCAGATGTA
Kind of experiment: SPR (Biacore X100), kinetic kd/ka. Conditions: 150 mM NaCl; HBS-EP (10 mM HEPES, 3 mM EDTA, 0.005% P20), 0.1% DMSO, pH 7.4, 25 °C; printed ka, kd give 3.04 × 10^-8. Background: In SPR one partner is held on a chip, and binding of the other changes the refractive index at the surface.

The term KD denotes a measure of binding affinity in units of concentration. Read a low KD as tighter binding. `CN(C)CCCNC(=O)CCNC(=O)c1cc(NC(=O)c2nc(NC(=O)c3nc(NC(=O)CCNC(=O)c4cc(NC(=O)c5nc(NC(=O)CCCNC(=O)c6cc(NC(=O)c7cc(NC(=O)c8cc(NC(=O)CCNC(=O)c9cc(NC(=O)c%10nc(NC(=O)CCNC(=O)CCCC[C@@H]%11SC[C@@H]%12NC(=O)NC%12%11)cn%10C)cn9C)cn8C)cn7C)cn6C)cn5C)cn4C)cn3C)cn2C)cn1C` (stereo partly shown) showed a KD of 304 nM.
